{"source": "the CATMoS acute toxicity set (Mansouri et al. 2021)", "origin": "cited, not measured here", "note": "Values joined by “and” are separate entries in the source; they are usually repeats but may differ in a detail not shown here. Equal entries are not always repeated."}
{"test": "rat acute oral toxicity", "conditions": "in vivo"}
{"molecule": "O=C(O)C1=CCCN(CCOC(c2ccc(C(F)(F)F)cc2)c2ccc(C(F)(F)F)cc2)C1", "LD50": "894 mg/kg"}
{"molecule": "CN(C)C1CSSC1", "LD50": "420 mg/kg"}
{"molecule": "CCOC(=O)C1CC2CC1C1OC21", "note": "(stereo not given)", "LD50": "4760 mg/kg"}
{"molecule": "NN1C(=O)CC(c2cccc(Br)c2)C1=O", "note": "(stereo not given)", "LD50": "1600 mg/kg"}
{"molecule": "CC(=O)N1CCN(c2ccc(OC[C@H]3CO[C@](Cn4ccnc4)(c4ccc(Cl)cc4Cl)O3)cc2)CC1", "LD50": "166 mg/kg"}
{"molecule": "CC(C)CCCCCOP(OCCCCCC(C)C)OCCCCCC(C)C", "LD50": "9200 mg/kg"}
{"molecule": "CC(C)N=C1SC(=NOC(=O)N(C)SN(C)C(=O)ON=C2SC(=NC(C)C)SC2(C)C)C(C)(C)S1", "LD50": "113 mg/kg"}
{"molecule": "CN(C)C(=O)C(CC[N@+]1([O-])CC[C@@](O)(c2ccc(Cl)cc2)CC1)(c1ccccc1)c1ccccc1", "LD50": "172 mg/kg"}
{"molecule": "CC(=O)NC(=O)N(C)N=O", "LD50": "200 mg/kg"}
{"molecule": "C(=NC1CCCCC1)=NC1CCCCC1", "LD50": "400 mg/kg"}
{"molecule": "CC(=O)c1c(=O)cc(C)oc1=O", "LD50": "706 mg/kg"}
{"molecule": "O=C(Cl)CCl", "LD50": "208 mg/kg"}
{"molecule": "O=C(COc1ccc(Cl)cc1)N1CCN(Cc2ccc3c(c2)OCO3)CC1", "LD50": "4480 mg/kg"}
{"molecule": "N#CC(Cl)CS(=O)(=O)c1ccccc1", "note": "(stereo not given)", "LD50": "540 mg/kg"}
{"molecule": "CCOC(=S)C=Cc1ccc(OC)c(OC)c1", "LD50": "980 mg/kg"}
{"molecule": "CP(C)(=O)CN1C(=O)CN=C(c2ccccc2)c2cc(Cl)ccc21", "LD50": "3110 mg/kg"}
{"molecule": "C(=CNc1ccccc1)C=Nc1ccccc1", "LD50": "1130 mg/kg"}
{"molecule": "CSc1ncnc2c1ncn2C1OC(CO)C(O)C1O", "note": "(stereo not given)", "LD50": "214 mg/kg"}
{"molecule": "CCCCCC1=CCCC1=O", "LD50": "2200 mg/kg"}
{"molecule": "CCc1cccc(C)c1N", "LD50": "885 mg/kg"}
{"molecule": "CN(C)S(=O)(=O)CCCCCNC(=O)N(CCCl)N=O", "LD50": "250 mg/kg"}
{"molecule": "CCN1C(=O)c2ccccc2C1Nc1ccc(OCCN2CCCCC2)cc1", "note": "(stereo not given)", "LD50": "695 mg/kg"}
{"molecule": "CNC(=O)Oc1cccc2sccc12", "LD50": "70 mg/kg"}
{"molecule": "O=c1cc(O)c1=O", "LD50": "41 mg/kg"}
{"molecule": "CN1CCN(C[C@H]2C(=O)Nc3ccccc3S[C@H]2c2ccccc2)CC1", "LD50": "830 mg/kg"}
{"molecule": "CCOc1ccc(NC(=O)CC(C)O)cc1", "note": "(stereo not given)", "LD50": "7000 mg/kg"}
{"molecule": "NC(=O)c1cc([N+](=O)[O-])cc([N+](=O)[O-])c1", "LD50": "1250 mg/kg"}
{"molecule": "OCC1CCC(CO)CC1", "note": "(stereo not given)", "LD50": "3200 mg/kg"}
{"molecule": "CCCCCCC(C)=CC#N", "LD50": "1720 mg/kg"}
{"molecule": "CCOC(C1=NCC(C)(C)CN1)c1ccc(C(C)C)cc1", "note": "(stereo not given)", "LD50": "220 mg/kg"}
{"molecule": "FC(F)(F)c1nc2c(Br)c(Br)c(Br)cc2[nH]1", "LD50": "7.18 mg/kg"}
{"molecule": "CCCCC(CC)C(=O)OCCOCCOCCOCCOC(=O)C(CC)CCCC", "note": "(stereo not given)", "LD50": "18000 mg/kg"}
{"molecule": "Oc1cccc2cc3cccc(O)c3c(O)c12", "LD50": "3220 mg/kg"}
{"molecule": "CCCCN(CCCC)CCCN", "LD50": "820 mg/kg"}
{"molecule": "CC(C(=O)O)c1ccc(-c2ccccc2F)cc1", "note": "(stereo not given)", "LD50": "337 mg/kg"}
{"molecule": "O=C(Cn1c(=O)sc2ccc(Cl)cc21)N1CCNCC1", "LD50": "734 mg/kg"}
{"molecule": "CN(C)C(=O)NC1CCC2C3CCC(C3)C12", "note": "(stereo not given)", "LD50": "1600 mg/kg"}
{"molecule": "SCc1ccccc1", "LD50": "493 mg/kg"}
{"molecule": "COc1c2ccoc2cc2oc(C)cc(=O)c12", "LD50": "832 mg/kg"}
{"molecule": "CCOC(O)C(Cl)(Cl)Cl", "note": "(stereo not given)", "LD50": "880 mg/kg"}
{"molecule": "O=[PH](O)c1ccccc1", "LD50": "1340 mg/kg"}
{"molecule": "CC(=O)OCC1=CC[C@@H]2C[C@H]1C2(C)C", "LD50": "2600 mg/kg"}
{"molecule": "Nc1nccs1", "LD50": "480 mg/kg"}
{"molecule": "CCCC(=O)c1ccc2c(c1)N(CCCN1CCOCC1)c1ccccc1S2", "LD50": "3500 mg/kg"}
{"molecule": "CC(=O)Nc1ccc2nc(C(F)(F)F)[nH]c2c1", "LD50": "23.8 mg/kg"}
{"molecule": "CCc1cc2c(cc1C=O)C(C)(C)CCC2(C)C", "LD50": "3200 mg/kg"}
{"molecule": "O=C(CCCN1CCC(n2c(=S)[nH]c3ccccc32)CC1)c1ccc(F)cc1", "LD50": "232 mg/kg"}
{"molecule": "CNC(=O)ON=C1SC(=NN(C)C)SC1(C)C", "LD50": "1.8 mg/kg"}
{"molecule": "CC(C)CCI", "LD50": "1420 mg/kg"}
{"molecule": "O=C(Cn1ccnc1)c1ccc2ccccc2c1", "LD50": "504 mg/kg"}
{"molecule": "CC/C=C\\CC=O", "LD50": "1560 mg/kg"}
{"molecule": "OC(CCN1CCCCC1)(c1ccccc1)C1CCCCC1", "note": "(stereo not given)", "LD50": "1630 mg/kg"}
{"molecule": "Nc1ccc(S(=O)(=O)O)c(N)c1", "LD50": "3480 mg/kg"}
{"molecule": "Cc1cc(Cl)ccc1/N=C/N(C)C", "LD50": "225 mg/kg"}
{"molecule": "CCOP(=S)(OCC)SC(=O)CN(C)C(N)=O", "LD50": "16 mg/kg"}
{"molecule": "c1ccc(C2CC(N3CCCC3)CC(c3ccccc3)C2c2ccccn2)cc1", "note": "(stereo not given)", "LD50": "479 mg/kg"}
{"molecule": "O=C(OCC1(COC(=O)c2cccnc2)CCCC(COC(=O)c2cccnc2)(COC(=O)c2cccnc2)C1O)c1cccnc1", "LD50": "10000 mg/kg"}
{"molecule": "CCC(Br)(CC)C(=O)NC(N)=O", "LD50": "316 mg/kg"}
{"molecule": "CCc1c(C)nc2c(C)cccn2c1=O", "LD50": "820 mg/kg"}
{"molecule": "CC(NCCNC(C)c1ccccc1)c1ccccc1", "note": "(stereo not given)", "LD50": "1290 mg/kg"}
{"molecule": "CCS(=O)(=O)Nc1c(C)cc(OC(=O)NC)cc1C", "LD50": "780 mg/kg"}
{"molecule": "CCCCN1CCCC1C(=O)Nc1c(C)cc(C)cc1C", "note": "(stereo not given)", "LD50": "14000 mg/kg"}
{"molecule": "CC(C)c1ccc(C(C)(C)O)cc1", "LD50": "11300 mg/kg"}
{"molecule": "CC(C)CCOC(=O)c1ccccc1O", "LD50": "3300 mg/kg"}
{"molecule": "CCCCOCCOC(=O)CCCCC(=O)OCCOCCCC", "LD50": "1100 mg/kg"}
{"molecule": "Nc1nc(=S)ss1", "LD50": "3050 mg/kg"}
{"molecule": "Cc1c(-c2c(C)c(N)c3c(C(C)C)c(O)c(O)c(C=O)c3c2O)c(O)c2c(C=O)c(O)c(O)c(C(C)C)c2c1N", "LD50": "3270 mg/kg"}
{"molecule": "CCN(CC)C(=O)c1nnn(-c2ccc(N)cc2)c1C", "LD50": "494 mg/kg"}
{"molecule": "CCCCCCCCCCCCCCCC[N+](C)(C)C", "LD50": "410 mg/kg"}
{"molecule": "ClC1=C(Cl)C2(Cl)C(CBr)CC1(Cl)C2(Cl)Cl", "note": "(stereo not given)", "LD50": "12500 mg/kg"}
{"molecule": "CN(C)C1CCc2ccccc2C(Oc2ccc([N+](=O)[O-])cc2)C1", "note": "(stereo not given)", "LD50": "534 mg/kg"}
{"molecule": "CC1=CC(=O)NS(=O)(=O)O1", "LD50": "7430 mg/kg"}
{"molecule": "CNCCCC1c2ccccc2C=Cc2ccccc21", "LD50": "299 mg/kg and 240 mg/kg"}
{"molecule": "S=C1SSC2=NCCN12", "LD50": "380 mg/kg"}
{"molecule": "CNC(=O)ON=C1SCSC1(C)C", "LD50": "0.67 mg/kg"}
{"molecule": "O=P(O)(O)Oc1c(Br)cc(Br)cc1-c1cc(Br)cc(Br)c1O", "LD50": "142 mg/kg"}
{"molecule": "COC(OC)C(C)c1ccccc1", "note": "(stereo not given)", "LD50": "1850 mg/kg"}
{"molecule": "CCOC(=O)C1(c2ccccc2)CCN(CCOCCO)CC1", "LD50": "230 mg/kg"}
{"molecule": "CCCCCCCCCCCC(=O)OCC(O)CO", "note": "(stereo not given)", "LD50": "52900 mg/kg"}
{"molecule": "CC(CCc1ccc(O)cc1)NCCc1ccc(O)c(O)c1", "note": "(stereo not given)", "LD50": "2300 mg/kg"}
{"molecule": "Nc1ccc(OC(F)(F)C(F)F)c(N)c1", "LD50": "1070 mg/kg"}
{"molecule": "N=c1ccn(O)cc1", "LD50": "75 mg/kg"}
{"molecule": "C[n+]1cc2c3c(ccc2c2ccc4cc5c(cc4c21)OCO5)OCO3", "LD50": "1660 mg/kg"}
{"molecule": "CCN(CC)C(=O)c1cc(=O)c2ccccc2o1", "LD50": "4000 mg/kg"}
{"molecule": "CC[C@@H](C(=O)O)[C@@H]1O[C@@H]([C@@H](C)[C@H](O)[C@H](C)C(=O)[C@H](CC)[C@H]2O[C@]3(C=C[C@@H](O)[C@]4(CC[C@@](C)([C@H]5CC[C@](O)(CC)[C@H](C)O5)O4)O3)[C@H](C)C[C@@H]2C)[C@@H](C)C[C@@H]1C", "LD50": "18.5 mg/kg"}
{"molecule": "C=C(C)C1CC=C(C)C(O)C1", "note": "(stereo not given)", "LD50": "3000 mg/kg"}
{"molecule": "COc1cccc2c1cc([N+](=O)[O-])c1c(C(=O)O)cc3c(c12)OCO3", "LD50": "184 mg/kg"}
{"molecule": "O=C1c2ccccc2C(=O)N1CCc1ccccn1", "LD50": "860 mg/kg"}
{"molecule": "CCC1C(C)=NN=C(c2ccc(OC)c(OC)c2)c2cc(OC)c(OC)cc21", "note": "(stereo not given)", "LD50": "825 mg/kg"}
{"molecule": "CN1CCCCC1C(c1ccccc1)c1cccc(O)c1", "note": "(stereo not given)", "LD50": "1 mg/kg"}
{"molecule": "CCOc1ccccc1N1CCN(CCCc2ccc3c(c2)CCC(=O)N3)CC1", "LD50": "500 mg/kg"}
{"molecule": "C=CC(=O)OCCCl", "LD50": "180 mg/kg"}
{"molecule": "CCCCCCOCCO", "LD50": "830 mg/kg"}
{"molecule": "c1cncc(C2=NCCC2)c1", "LD50": "1880 mg/kg"}
{"molecule": "CC(C)(O)CC(C)(O)c1ccc(Cl)cc1", "note": "(stereo not given)", "LD50": "1140 mg/kg"}
{"molecule": "O=C1c2ccccc2N(C(=O)CN2CCOCC2)CN1c1ccccc1", "LD50": "2220 mg/kg and 2140 mg/kg"}
{"molecule": "N#CC(C#N)=C(C#N)C#N", "LD50": "5 mg/kg"}
{"molecule": "O=c1n(CCCN2CCN(c3cccc(Cl)c3)CC2)nc2ccccn12", "LD50": "690 mg/kg"}
{"molecule": "CC(C)(C)C(O)C(=Cc1ccc(Cl)cc1Cl)n1cncn1", "note": "(stereo not given)", "LD50": "474 mg/kg"}
{"molecule": "COP(=O)(Oc1cc(Cl)c(Br)cc1Cl)c1ccccc1", "note": "(stereo not given)", "LD50": "118 mg/kg"}
